Patent US20260242440A1, “NOVEL MEANS TO MODULATE NMDA RECEPTOR-MEDIATED TOXICITY” (FUNDAMENTAL PHARMA GMBH, priority 2018, published 2026)
Entries after “also recorded” stand apart in the source; their conditions may differ.

Tests used:
[1] = system: primary mouse hippocampal neurons; test: NMDA induced cell death (excitotoxicity) in cultured primary neurons; assay type: cell-based; details: polypeptide expressed via rAAV infection on DIV3; NMDA 20 μM for 10 min; cell death assessed 24 h later
Experimental: Primary mouse hippocampal and cortical neurons were prepared and maintained as known. Briefly, hippocampi or cerebral cortex from P0 C57Bl/6NCrl mice were dissociated and plated at a density of 1.2*105/cm^2 in Growth Medium (GM), consisting of Neurobasal A medium (Gibco™, 10888022), 2% serum free B27™ Supplement (Gibco™, 17504044), 1% rat serum (Biowest, S2150), 0.5 mM L-Glutamine (Sigma, G7513) and 0.5% P-S. Cytosine β-D-arabinofuranoside (AraC; Sigma, C1768; 2.8 μM) was added on DIV3 to prevent the proliferation of glial cells. From DIV8, half of the medium was replaced by GM without Rat serum every 48 h until being used for experiments. 24 h before experiments, GM was replaced with transfection medium (10 mM HEPES, pH 7.4, 114 mM NaCl, 26.1 mM NaHCO3, 5.3 mM KCl, 1 mM MgCl2, 2 mM CaCl2, 30 mM glucose, 1 mM glycine, 0.5 mM C3H3NaO3, and 0.001% phenol red and 10% of phosphate-free Eagle's minimum essential medium, supplemented with 7.5 µg/ml insulin, 7.5 µg/ml transferrin and 7.5 ng/ml sodium selenite (ITS Liquid Media Supplement, Sigma-Aldrich Cat #I3146)). Primary hippocampal neurons were used in live cell imaging, cell death experiments, while cortical neurons were used for mRNA and protein extraction analysis.
All viral particles were produced and purified as known in the art. All TRPM4 derived peptides (comprising SEQ ID NO:5, or any of SEQ ID NO:46 to SEQ ID NO:56) were cloned into rAAV backbone by PCR. shRNA against mouse TRPM4 were designed by BLOCK-iT™ RNAi Designer from Thermofisher to target: […] (SEQ ID NO:44, shTRPM4-1) and […] (SEQ ID NO:45, shTRPM4-2). Scramble shRNA (shSCR) has been tested and proven to have no known targets in mice. GPI anchor ([…], e.g. used in SEQ ID NO:53) sequences were synthesized by Eurofins Genomics (Ebersberg, Germany). All primers were synthesized and all plasmids were confirmed by sequencing by Eurofins Genomics.
In order to investigate the role of TRPM4 in NMDA receptor mediated excitotoxicity, the inventors used RNA interference strategies to knock down TRPM4. Cultured primary mouse hippocampus neurons were infected on day 3 in vitro (DIV3) with recombinant adeno-associated viruses (rAAVs) providing for expression of a scramble control (shSCR), shTRPM4-1 (SEQ ID NO:44) or shTRPM4-2 (SEQ ID NO:45). On DIV15-16, neurons were challenged with N-methyl-D-aspartate (NMDA, 20 μM) for 10 min. After NMDA wash out, neurons were kept in the culture medium for another 24 h before analysis. […] Evidently, TRPM4 is thus involved in the process of NMDA receptor mediated excitotoxicity.
In a next step, the inventors tried to identify regions in the mouse TRPM4 protein potentially involved in NMDA receptor mediated excitotoxicity. For this purpose, polypeptide fragments of mouse TRPM4 protein were generated and their impact on NMDA induced excitotoxicity analysed. To do so, primary neuron cultures were infected with respective rAAVs on DIV3, challenged with NMDA (20 μM) for 10 min on DIV17 and cell death assessed 24 hours later.
The sequence of SEQ ID NO:5 in TRPM4 is located in vivo just beneath the plasma membrane. […] To test this hypothesis, the inventors created a fusion protein comprising SEQ ID NO:5 and a GPI anchor, SEQ ID NO:57. The sequence of the fusion is given in SEQ ID NO:53. Neurons infected with rAAV and expressing SEQ ID NO:47 (control) or SEQ ID NO:53 were exposed to NMDA (20 μM) for 10 min on DIV15-16, with cell death assessed after 24 h.
In a next step, the inventors created a mutant of SEQ ID NO:5, in which two adjacent phenylalanine residues where substituted by tyrosine residues (SEQ ID NO: 54). […] TRPM5 is a protein related to but nonetheless distinct to TRPM4. The region in TRPM5 corresponding to SEQ ID NO:5, SEQ ID NO:55, shares only about 60% sequence identity with SEQ ID NO:5. Neurons were infected on DIV3 with rAAVs expressing SEQ ID NO: 5, SEQ ID NO: 54 or SEQ ID NO:55 and exposed to NMDA (20 μM) for 10 min on DIV17, with cell death assessed 24 h later. […]

[2] = system: primary mouse hippocampal neurons; test: NMDA receptor induced mitochondrial membrane potential breakdown (Rh123 imaging); assay type: cell-based
Experimental: Coverslips with primary cultured neurons (DIV15-DIV17) were used to examine mitochondrial membrane potential (Ψm) and mitochondrial calcium signalling, which was performed at room temperature in CO2-independent culture medium (CICM) containing: 10 mM HEPES, 140 mM NaCl, 2.5 mM KCl, 1.0 mM MgCl2, 2.0 mM CaCl2, 1.0 mM Glycine, 35.6 mM Glucose and 0.5 mM Na-pyruvate. All images were obtained by a cooled-CCD camera (iXon 887, Andor) on an upright microscope (BX51WI, Olympus). Fluorescence excitation was provided by a xenon arc lamp in combination with an excitation filter wheel (MT-20, Olympus). Data were collected using Cell^R software (Olympus), analysed using ImageJ and quantified using Igor Pro (WaveMetrics). Ψm was detected with the small molecule fluorescence indicator Rhodamine 123 (Rh123; Molecular Probe™, R302). Primary cultured neurons were loaded with 4.3 μM Rh123 in CICM at 37° C. for 30 min, then washed and left in CICM for another 30 min before recording. At the end of each experiment, the mitochondrial uncoupler FCCP (5 μM, Sigma-Aldrich, Cat #C2920) was applied to the cells to reach the maximal Rh123 fluorescence intensity. Rh123 was imaged with 470±20 nm excitation and 525±25 nm emission wavelengths using a 20× objective. Rh123 fluorescence intensity was measured in the nucleus to minimize contamination from cytosolic mitochondrial signal and Rh123 fluorescence intensity was normalized to the maximum FCCP signal for each region of interest.
Mitochondrial dysfunction is a hallmark of NMDA receptor excitotoxicity and an early event en-route to neuronal death. A parameter that is often used to assess mitochondrial integrity is the mitochondrial membrane potential. A breakdown of the mitochondrial membrane potential can be observed after exposure of hippocampal or cortical neurons to NMDA and indicates excitotoxicity-associated mitochondrial dysfunction. Therefore, the inventors investigated the effect of polypeptides comprising the sequence of SEQ ID NO:5 or SEQ ID NO: 54 as well as of the control TRMP5 sequence (SEQ ID NO: 55) on mitochondrial membrane potential break down in primary mouse hippocampal neurons. Excitotoxicity leading to mitochondrial membrane potential break down was induced with bath application of 20 μM NMDA. After 11 minutes, the mitochondrial uncoupler, carbonylcyanide-p-trifluoromethoxyphenylhydrazone (FCCP) was added. Addition of FCCP leads to break-down of the mitochondrial membrane potential and served as a control of the test system.

synaptic NMDA receptor = test: Gabazine induced calcium influx into mitochondria (synaptic NMDA receptor signalling); assay type: cell-based, mouse; details: primary cultured neurons, polypeptides expressed via rAAV
Experimental: Gabazine induced mitochondrial Ca^2+ response in primary cultured neurons is recorded and analysed as described in a previous study (Qiu et al, Nat Commun. 2013; 4:2034, incorporated herewith by reference) using a FRET calcium indicator 4mtD3cpv that specifically located to mitochondria. Briefly, mitochondrial Ca^2+ levels were detected with FRET-based and mitochondrial targeted Ca^2+ indicator 4mtD3cpv. 4mtD3cpv were excited at 430±12 nm (CFP) and 500±10 nm (YFP), and emission of CFP (470±12 nm) and YFP (535±15 nm) were separated and filtered using a DualView beam splitter (AHF Analysentechnik and MAG Biosystems), and all fluorescence images were recorded through a 20× water-immersion objective at 1 Hz.
In a further experiment the inventors assessed the impact of the polypeptide comprising the sequence of SEQ ID NO:5 and SEQ ID NO: 54, respectively, on Gabazine induced calcium influx (mitochondria), a measure of synaptic NMDA receptor signalling. The experiment was carried out in primary cultured neurons as described above.

NMDA receptor = test: NMDA-induced calcium transients (Fura2 calcium imaging); assay type: cell-based, mouse; details: hippocampal neurons, 6 min NMDA (20 μM) application
Experimental: In a further experiment, the impact of P4 and P15 on NMDA-induced calcium transients was assessed. Briefly, for calcium imaging, primary hippocampal neurons on coverslips were loaded with the cell-permeable, high-affinity ratiometric calcium indicator Fura2-AM (Invitrogen™ F1221), at 1 μM in CO2-independent culture medium (CICM; CICM contains: 10 mM HEPES, 140 mM NaCl, 2.5 mM KCl, 1.0 mM MgCl2, 2.0 mM CaCl2, 1.0 mM Glycine, 35.6 mM Glucose and 0.5 mM Na-pyruvate) for 30 min at 37° C., then washed and left in CICM for another 30 min to allow for de-esterification. Fura2 was excited at 340/11 nm and 380/11 nm, and fluorescence emission was obtained from a 40× UV compatible objective (LUMPLFLN, Olympus) through a 510/20 nm emission filter. For quantification, ImageJ was used to calculate average background-subtracted fluorescence intensities for 340 and 380 nm excitation (F340 and F380) from each neuron. Intracellular calcium levels were plotted as F340/F380 ratios over time, from which the NMDA response amplitude and area under the curve (AUC) was calculated to quantify NMDA-induced calcium influx.

HEK293 cells = test: Luminescent cytotoxicity assay, HEK293 cells transfected with GRIN1 and GRIN2A or GRIN2B; assay type: cell-based, human; details: compound added 6 h after transfection; cell death 48 h after transfection
Experimental: HEK293 cells were cultured in Dulbecco's Modified Eagle Medium (DMEM, Gibco™ 41965-039) supplement with 10% Fetal Bovine Serum (FBS, Gibco™, 10270), 1% Sodium Pyruvate (Gibco™, 11360070), 1% MEM NEAA (GibcoT^M, 11140035) and 0.5% Penicillin-Streptomycin (P-S; Sigma, P0781) and Passagel5-25 were used for experiments.
To test the cytotoxicity of compounds according to the present invention, HEK293 cells (70-80% confluent) were transfected 24 hours after plating with both GRIN1 and GRIN2 Å or GRIN2B, respectively (1:[…]) with Lipofectamine 2000 according to manufacturer's instructions. The relative number of dead cells in the population at the indicated time points after transfection was measured with the CytoTox-Glo™ Cytotoxicity assay (Promega, G9290) according to manufacturer's instruction with minor modification. Briefly, 10% of total medium were mixed with 10 μL AAF-amino luciferin to reach a final volume at 200 μL with water, the dead cell relative luminescence units (DRLU) was measured by GloMax (Promega) in a 96 well white bottom polystyrene microplate (Corning Costar®, 3912). After all the measurements, lysis reagents have been added to the cells and 10% of lysate was used for the total cell relative luminescence units (TRLU) measurement. Cell death was calculated by the following equations: […]
For drug testing, P4, P8, P9, P13 and P15 were added to the medium at indicated concentration 6 h after transfection. DRLU, TRLU and cell death were measured and calculated 48 h after transfection.

TRPM4 channel = target: T1, TRPM4 channel (Homo sapiens, UniProt Q8TD43); test: TRPM4 channel function, whole-cell patch clamp in PC3 cells; assay type: cell-based; details: 10 μM compound, pre-incubated 30-60 min
T1 construct: PC3 cells are known to express TRPM4 channels; endogenous in cells; host or cells: PC3 prostate cancer cell line
From the text: To assess any direct impact of compound P4 and compound P15 on TRPM4 channel function independent of NMDA receptors, the inventors used the prostate cancer cell line PC3 and patch clamp recordings. PC3 cells are known to express TRPM4 channels (C. Holzmann et al., Oncotarget. 6, 41783-93 (2015)). TRPM4 currents in turn are characterized by their calcium dependence and outward rectification (P. Launay et al., Cell. 109, 397-407 (2002)). Briefly, whole-cell patch clamp recordings were made from PC3 cells plated on 12 mm round coverslips secured with a platinum ring in a recording chamber (OAC-1, Science Products GmbH) mounted on a fixed-stage upright microscope (BX51WI, Olympus). […] Patch electrodes (3-4 MΩ) were made from 1.5 mm borosilicate glass and filled with cesium-based solutions (in mM: CsCl, 145; NaCl, 8; HEPES, 10; MgCl2, 1; plus either EGTA, 0.2 for a free Ca^2+ concentration of zero; or EGTA, 10 and CaCl2), 9.4 for a calculated free Ca^2+ concentration of 10 μM; Maxchelator, Stanford University). Recordings were made with a Multiclamp 700B amplifier, digitized through a Digidata 1550B and acquired and analyzed using pClamp 10 software (Molecular Devices). Access resistance (range: 10-20 MΩ) was monitored regularly during voltage clamp recordings and data was rejected if changes greater than 20% occurred.

T1 sequence (Q8TD43 whole entry): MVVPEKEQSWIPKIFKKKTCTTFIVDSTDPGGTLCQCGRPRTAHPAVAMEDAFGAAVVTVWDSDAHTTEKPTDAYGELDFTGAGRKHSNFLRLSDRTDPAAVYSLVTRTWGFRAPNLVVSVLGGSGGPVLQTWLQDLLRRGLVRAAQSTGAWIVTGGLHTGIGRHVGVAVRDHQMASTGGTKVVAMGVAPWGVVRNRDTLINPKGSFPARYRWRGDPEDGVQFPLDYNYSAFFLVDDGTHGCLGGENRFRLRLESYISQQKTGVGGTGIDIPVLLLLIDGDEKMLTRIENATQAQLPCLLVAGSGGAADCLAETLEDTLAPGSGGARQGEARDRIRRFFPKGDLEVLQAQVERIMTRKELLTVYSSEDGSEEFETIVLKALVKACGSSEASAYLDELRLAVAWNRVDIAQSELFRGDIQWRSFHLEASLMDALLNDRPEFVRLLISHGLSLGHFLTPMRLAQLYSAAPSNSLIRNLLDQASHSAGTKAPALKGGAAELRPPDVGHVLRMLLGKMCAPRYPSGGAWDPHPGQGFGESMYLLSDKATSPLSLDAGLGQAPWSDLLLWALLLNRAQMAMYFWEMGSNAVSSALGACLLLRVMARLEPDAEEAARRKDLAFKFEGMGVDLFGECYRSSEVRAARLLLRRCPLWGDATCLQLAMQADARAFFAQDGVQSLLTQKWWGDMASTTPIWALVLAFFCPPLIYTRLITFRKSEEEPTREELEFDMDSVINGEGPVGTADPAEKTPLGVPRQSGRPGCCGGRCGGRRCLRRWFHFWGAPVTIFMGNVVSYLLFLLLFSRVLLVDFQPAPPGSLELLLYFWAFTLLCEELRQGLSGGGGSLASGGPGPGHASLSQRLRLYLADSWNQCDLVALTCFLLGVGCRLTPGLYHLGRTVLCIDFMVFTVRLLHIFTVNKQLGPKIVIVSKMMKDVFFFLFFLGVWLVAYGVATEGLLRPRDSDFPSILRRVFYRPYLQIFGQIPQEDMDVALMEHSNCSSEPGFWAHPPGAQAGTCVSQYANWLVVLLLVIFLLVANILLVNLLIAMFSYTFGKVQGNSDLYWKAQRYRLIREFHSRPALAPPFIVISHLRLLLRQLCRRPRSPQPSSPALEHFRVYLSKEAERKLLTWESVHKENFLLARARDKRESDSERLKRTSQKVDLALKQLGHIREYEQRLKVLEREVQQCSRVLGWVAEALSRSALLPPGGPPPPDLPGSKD

Row | Molecule | protection against NMDA induced cell death (neuroprotective effect) [1] | NMDA receptor induced mitochondrial membrane potential breakdown ([2]; polypeptides expressed via rAAV, bath application of 20 μM NMDA) | Gabazine induced calcium influx into mitochondria (synaptic NMDA receptor) | NMDA-induced calcium transients (NMDA receptor) | protection of mitochondrial membrane potential from NMDA excitotoxicity ([2]; compound applied 30 min prior to recording, bath application of NMDA) | NMDA receptor induced cell death (HEK293 cells) | TRPM4-like outwardly rectifying current activated by 10 μM Ca2+ (TRPM4 channel)
1 | SEQ ID NO:54: derivative of SEQ ID NO:5, having a conservative substitution of two Y for two F (NSEERAARLLLRRCPLWGEATCLQLAMQADARAYYAQDGVQSLLTQKWWGEMDSTTP; Mutant of SEQ ID NO:5 with F34Y and F35Y) | only slightly less effective in reducing NMDA receptor-mediated cell toxicity than SEQ ID NO:5 | capable of preventing NMDA receptor induced mitochondrial membrane potential breakdown | neither of these polypeptides affects synaptic NMDA receptor signalling; also recorded: not affected |  |  |  | 
2 | NCC1CCN(CC(=O)Nc2cc(Cl)c(Cl)cc2Cl)C1 (stereo not shown) [P15] |  |  |  | neither compound P4 nor compound P15 reduced; also recorded: neither compound P4 nor P15 reduced | significantly protect mitochondrial membrane potential from NMDA excitotoxicity | reduced the level of NMDA receptor induced cell death | not affected
